# From patent US8106003B2, “Peptides and methods for the treatment of inflammatory disease” (Auckland Uniservices Limited, priority 2004, dated 2012)
# Experiments:
# [1] = system: tyrosine phosphorylation of β7cyt; assay: In vitro kinase assay of GST-β7cyt fusion protein with H9 cell lysate; type: biochemical, human; settings: genistein at 20 μM; H9 cell lysate 1:100
# Procedure: Phosphorylation of recombinant GST fusion protein encoding β7cyt. H9 cells (5×10^7) were lysed at 4° C. in 1 ml of lysis buffer (10 mM Tris pH 7.4, 50 mM NaCl, 50 mM NaF, 1 mM sodium orthovanadate, 300 μg/ml PMSF, 20 μg/ml aprotinin, 10 μg/ml leupeptin, and 1% NP-40), centrifuged, and the supernatant precleared with GST-Sepharose. A GST fusion protein (50 μg) encoding the β7 subunit cytoplasmic domain bound to glutathione-Sepharose was incubated with trace amounts (1:100 dilution) of precleared lysate for 2 h at 4° C. The beads were washed thrice with lysis buffer and thrice with kinase buffer (10 mM Tris pH 7.4, 50 mM NaCl, 5 mM MgCl2, 5 mM MnCl2, 0.1 mM Na3VO4), and incubated in 30 μl kinase buffer containing 0.5 μCi [^32P] γATP for 20 min at 30° C. The sample was subjected to SDS-PAGE on a 10% acrylamide gel. The gel was stained with Coomassie Blue to visualize the GST fusion protein, and treated with 1 M KOH at 55° C. for 2 h to remove alkali-labile phosphate moieties on serine and threonine. The gel was dried, and subjected to autoradiography.
# [2] = system: β2 integrin (αLβ2)-mediated adhesion of H9 cells to ICAM-1; assay: Cell adhesion assay: H9 cells to ICAM-1-Fc (integrin specificity); type: cell-based, human; settings: Mn++-activated H9 cells
# Procedure: Cell adhesion assays. Lab-Tek 16-well glass slides (Nunc) or flat-bottomed 96-well maxisorb plates (Nunc) were coated with purified mouse MAdCAM-1-Fc, human VCAM-1-Fc, and human ICAM-1-Fc (70 to 100 μl of 5 to 10 μg/ml), and incubated at 4° C. overnight. Slides were washed once with PBS, and blocked with FCS for 2 h at room temperature. Slides were washed with Hanks balanced salt solution (HBSS) containing 10 mM Hepes. Cells were either left unlabeled or labeled with the fluorescent dye chloromethyl fluorescein diacetate (CMFDA; Molecular Probes, Oregon), and activated by resuspension in HBSS containing 10 mM Hepes supplemented with 2 mM Ca^++ and 2 mM Mn^++. Cells were alternatively activated with 50 ng/ml PMA, or by incubating with AlF4^− (10 mM NaF and 40 µM AlCl3). They were preincubated with peptides at different concentrations for 10 min at room temperature, checked for viability by trypan blue exclusion, and then 10^6 cells added to each coated well and left to adhere for 30 min at room temperature. […] The number of adherent cells was determined by counting the number of adherent cells in four independent fields at 100× magnification under an inverted microscope. […] The fluorescence of CMFDA-labeled adherent cells was measured using a VICTOR 1420 multilabel counter (Wallac). […]
Compound,blockade of phosphorylation of β7cyt [1],inhibition of H9 cell binding to ICAM-1 [2]
O=c1c(-c2ccc(O)cc2)coc2cc(O)cc(O)c12 [genistein],completely blocked,
"YDDREY: cell permeable YDRREY (SEQ ID NO. 1) peptide, carrier not stated at this place",,neither the cell permeable YDDREY (SEQ ID NO. 1) peptide nor the β3 CARD were able to block
